In US7169891B2, “Human pellino polypeptides” (Immunex Corporation, priority 2000, dated 2007):

Columns and labels:
Pellino-1 = assay: Effect of cell stimulation on Pellino-1 localization and cleavage in transfected COS-7 cells; type: cell-based, monkey; conditions: for Effect of growth factor incubation on Pellino-1 (cleavage and redistribution): Pellino-1-transfected cells, concentration not given
Procedure: This example describes the effect of stimulation of COS-7 cells transfected with an expression vector encoding FLAG-Pellino-1 with IL-1 or other molecules. Transfected cells are prepared substantially as described above. […] As Drosophila Pellino was identified by its ability to associate with Pelle, experiments in which Pellino is coexpressed with IRAK have been performed to determine if mammalian Pellino interacted with IRAK, the presumptive mammalian counterpart of Pelle.
To determine if the observed redistribution and proteolytic processing of Pellino-1 specifically required IRAK, Pellino-1-transfected cells were stimulated with agents that activate NF-kB by IRAK-independent pathways such as phorbol myristate acetate (PMA, 100 ng/ml), which is known to promote many of the same intracellular signals as IL-1, and TNF-alpha (20 ng/ml). TNF-alpha activates NF-kB through a mechanism involving the adaptor protein TRADD, the kinase RIP, and TRAF2, while PMA stimulates the activity of protein kinase C which is known to cross-talk with the NF-kB pathway. […] In both cases, 2 to 3 hours of exposure to the stimulus was required before significant Pellino cleavage was seen. The total amount of detectable Pellino-1 polypeptide (the sum of soluble and insoluble fractions) was increased in the presence of PMA or TNF-alpha, which presumably reflects a change in the net rates of Pellino-1 synthesis and/or degradation. […] EGF has been reported in some cells to activate NF-kB through the induction of IkB-alpha degradation.

[1] = tested on: NF-kB-dependent reporter gene; assay: NF-kB-dependent reporter gene (luciferase) assay in transfected COS cells; type: cell-based, monkey
Text: (§1) The murine Pellino-1 coding sequence DNA was fused, in frame at the 3′ end, to DNA encoding the FLAG epitope, followed by an in-frame stop codon. This construct was cloned into the mammalian expression vector pDC304 (identical to pDC302, described in U.S. Pat. No. 5,599,905, issued Feb. 4, 1997, except that the early splice region, consisting of splice donor and acceptor sites of the SV40 viral element, has been removed); and transfected into an IL-1-responsive line of COS-7 cells by the DEAE-dextran method.
In order to assay the effect of the Pellino-1-FLAG polypeptide and other forms of Pellino polypeptides on reporter gene activity, a method essentially as described in Born et al., 1998, J. Biol. Cheni. 273: 29445–29450 (which is incorporated by reference herein) can be used. As one example of this method, Cos7 cells were transiently transfected by the DEAE-dextran method as described (Cosman et al., 1984, Nature 312: 768–771, which is incorporated by reference herein), using 150 ng of the Pellino polypeptide expression construct and 700 ng of the reporter plasmid per 45,000 cells. Two days post-transfection, cells were stimulated with 10 ng/ml IL-1 or 40 ng/ml IL-18 (PeproTech, Inc.) for 4 hours. Cells were lysed and luciferase activity assessed using Reporter Lysis Buffer and Luciferase Assay Reagent (Promega Corp.). IL-8 promoter-reporter and NFkB-dependent reporter constructs may be used as reporter plasmids. Alternatively, the effect of Pellino polypeptide expression may be assayed in COS-1 cells. In an alternative preferred method, COS7 cells were grown in 12-well dishes as described above. The cells were transiently transfected with Pellino test plasmid, 50 ng of reporter plasmid DNA, and empty vector, as required, to a total of 1 micrograms of total DNA per well. After 24 hours, stimulating agents were added in a small amount (less than 0.5% final volume) of medium or dimethyl sulfoxide, and the cells were re-incubated for 5 hours. Cells were lysed in luciferase Reporter Lysis Buffer (Promega, Madison Wis., 0.25 ml per well) and luciferase activity was measured in a EG & G/Berthold luminometer after addition of Luciferase Assay Reagent (Promega) according to the supplier's instructions. All results were normalized to total protein content of the lysates as measured using the micro-BCA assay (Pierce, Rockford, Ill).

[2] = tested on: Jun N-terminal kinase, p38 kinase, and ERK signaling; assay: Jun N-terminal kinase, p38 kinase and ERK signaling mediated by IL-1; type: cell-based
[3] = tested on: IL-8 promoter-reporter gene; assay: IL-8 promoter-reporter gene assay in transfected COS cells; type: cell-based, monkey; conditions: COS-1 cells; presence and absence of TNF-alpha; compared to vector-only control
Text: as §1
In order to assay the effect of the Pellino-1-FLAG polypeptide and other forms of Pellino polypeptides on reporter gene activity, a method essentially as described in Born et al., 1998, J. Biol. Cheni. 273: 29445–29450 (which is incorporated by reference herein) can be used. […] Cells were lysed and luciferase activity assessed using Reporter Lysis Buffer and Luciferase Assay Reagent (Promega Corp.). […] Cells were lysed in luciferase Reporter Lysis Buffer (Promega, Madison Wis., 0.25 ml per well) and luciferase activity was measured in a EG & G/Berthold luminometer after addition of Luciferase Assay Reagent (Promega) according to the supplier's instructions. All results were normalized to total protein content of the lysates as measured using the micro-BCA assay (Pierce, Rockford, Ill).

platelet-derived growth factor
Effect of growth factor incubation on Pellino-1 (cleavage and redistribution) (Pellino-1): little or no effect

epidermal growth factor
Effect of growth factor incubation on Pellino-1 (cleavage and redistribution) (Pellino-1): very weakly active

transforming growth factor-beta
Effect of growth factor incubation on Pellino-1 (cleavage and redistribution) (Pellino-1): little or no effect

TNF-alpha
Time after induction at which cleavage and relocation of Pellino-1 began (Pellino-1; TNF-alpha 20 ng/ml, time-course experiments): about three

basic fibroblast growth factor: growth factor
Effect of growth factor incubation on Pellino-1 (cleavage and redistribution) (Pellino-1): little or no effect

B1: wild-type-FLAG: unaltered murine Pellino-1 (SEQ ID NO:2) fused to the FLAG epitope (protein, listed as Mus musculus)
chain: MFSPDQENHPSKAPVKYGELIVLGYNGSLPNGDRGRRKSRFALFKRPKANGVKPSTVHIACTPQAAKAISNKDQHSISYTLSRAQTVVVEYTHDSNTDMFQIGRSTESPIDFVVTDTVPGSQSNSDTQSVQSTISRFACRIICERSPPFTARIYAAGFDSSKNIFLGEKAAKWKTSDGQMDGLTTNGVLVMHPRNGFTEDSKPGIWREISVCGNVFSLRETRSAQQRGKMVEIETNQLQDGSLIDLCGATLLWRTAEGLSHTPTVKHLEALRQEINAARPQCPVGFNTLAFPSMKRKDVVDEKQPWVYLNCGHVHGYHNWGNKEERDGKDRECPMCRSVGPYVPLWLGCEAGFYVDAGPPTHAFSPCGHVCSEKTTAYWSQIPLPHGTHTFHAACPFCAHQLAGEQGYIRLIFQGPLD
modifications: FLAG tag
Effect on Reporter Gene ([1]; NF-kB-dependent reporter gene activity, form of murine Pellino-1 expressed in COS cells): Stimulatory | IL-1-induced NFkB-dependent reporter gene activity ([1]; preliminary experiment, COS-7 cells): partially inhibit | Jun N-terminal kinase, p38 kinase, and ERK signaling mediated by IL-1 [2]: moderately augmented

B2: wild-type Pellino-1: wild-type Pellino-1 polypeptide expressed in COS cells; murine sequence SEQ ID NO:2 (protein, listed as Mus musculus)
chain: MFSPDQENHPSKAPVKYGELIVLGYNGSLPNGDRGRRKSRFALFKRPKANGVKPSTVHIACTPQAAKAISNKDQHSISYTLSRAQTVVVEYTHDSNTDMFQIGRSTESPIDFVVTDTVPGSQSNSDTQSVQSTISRFACRIICERSPPFTARIYAAGFDSSKNIFLGEKAAKWKTSDGQMDGLTTNGVLVMHPRNGFTEDSKPGIWREISVCGNVFSLRETRSAQQRGKMVEIETNQLQDGSLIDLCGATLLWRTAEGLSHTPTVKHLEALRQEINAARPQCPVGFNTLAFPSMKRKDVVDEKQPWVYLNCGHVHGYHNWGNKEERDGKDRECPMCRSVGPYVPLWLGCEAGFYVDAGPPTHAFSPCGHVCSEKTTAYWSQIPLPHGTHTFHAACPFCAHQLAGEQGYIRLIFQGPLD
NFkB-dependent reporter gene activity ([1]; COS cells transfected with high concentrations of expressing construct): inhibitory effect | IL-8 promoter-reporter gene activity [3]: stimulates
